Laboratory results as given in patent publication US20100286101A1, “PHARMACEUTICAL COMPOSITION INCLUDING A CORTICOSTEROID AND A VITAMIN D ANALOG HAVING IMPROVED STABILITY” (priority 2009, published 2010).

Experiment: Solvent attributes (dipolar, H-bonding, miscibility in mineral oil)
Assay type: physicochemical

| Dipolar | H-bonding | Miscibility in oil (mineral oil) | Compound |
| --- | --- | --- | --- |
| Yes | Yes | No | CC(O)CO (stereo not drawn) [Propylene Glycol] |
| Yes | Yes | No | Polysorbate 80 |
| Yes | Yes | Yes | Sorbitan Sesquioleate |
